# Laboratory results as given in US3954793A, “1-(2-Propynyl)-1 H-indazole compounds” (priority 1973, dated 1976).
# Several values for one entry are separate records, joined by “and”; a condition that tells them apart may be missing. Equal values may be shown once.
# Key:
# [1] = system: Swiss albino, white male mice; experiment: acute toxicity and synergism of acute toxicity in mice; assay type: in vivo; conditions: GS 13005 (71 mg/kg) in 0.1 ml corn oil
# In short: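 Male Swiss albino mice (23 to 27 g, five to six weeks), eight per dose, dosed intraperitoneally in corn oil: dimetilan alone at 4 to 32 mg per kg, synergists alone at 1000 mg/kg with deaths counted at 72 hours. For synergism, synergist given 1 hour before insecticide, lethality observed for at least 6 hours.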
# [2] = system: German male cockroaches (Blatella Germanicus); experiment: topical application to thorax, 24 hour mortality of German male cockroaches; assay type: in vivo; conditions: cockroaches
# Procedure: The synergistic effect with mobam of synergist compounds I-B, II-H, II-K and IV-C is further illustrated by the 24 hour mortality data of German male cockroaches (Blatella Germanicus) shown in Table XXXX. The synergists and insecticide were diluted in acetone and applied in small droplets to the thorax of the insect. These doses of synergist alone gave zero percent insect mortality.
# The synergistic effect with GS 13005 of compounds I-B, II-H, II-K, II-P, II-Q, II-R and IV-C is illustrated by the 24 hour mortality of German male cockroaches shown in Table XXXXI. These doses of synergist alone caused zero percent insect mortality.
# [3] = system: IN/WHO strain house flies; experiment: topical application, percent kill after 24 hours, susceptible IN/WHO strain; assay type: in vivo, female)
# In short: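 Insecticide plus synergist in acetone, 1.0 μl applied to the thorax of CO2-anesthetized 3-to-5-day-old female IN/WHO house flies, doses in μg/fly. Flies held 10 per dish, 3-5 dishes per treatment, with skim milk. Percent mortality scored after 24 h.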
# [4] = system: polyvalent resistant (CH strain) houseflies; experiment: whole plant or invertebrate; assay type: in vivo
# Procedure: The effect of O-(2-propynyl) oximes with Dimetilan and with GS 13798 was obtained from tests on polyvalent resistant (CH strain) houseflies that had been chilled and to the dorsal region of which was applied an acetone solution of synergist and insecticide at a ratio of two to one. Duplicate tests were performed using 10 four to five-day old female houseflies per test. After dosage, the flies were put in a plastic petri dish with cotton soaked in a sugar-water solution. These doses of insecticide used without synergist caused 10-40% mortality.
# In Table IX, and in the tables following it, the doses of topically applied insecticides and of synergists unless otherwise noted are expressed as micrograms per fly (μg/fly).
# The effect of compounds II-C, II-D and II-E with Dimetilan and GS 13798 was determined, following the procedure of Example 5, from tests on polyvalent resistant (CH strain) houseflies. These doses of insecticide used without synergist caused 10-40% mortality.
# The synergistic effect with GS 13005 of compounds I-A, I-B, I-D, I-E, I-F, I-G and I-I was determined from topical application tests to IN/WHO strain, Rutgers A strain and polyvalent CH strain houseflies using the procedures of Example 5. The percent kills of the IN/WHO strain flies after 24 hours are shown in Table XXVIII; of the Rutgers A strain, in Table XXIX; and of the polyvalent CH strain, in Table XXX. The doses of insecticide alone to the CH strain files caused 10-40% mortality.
# The synergistic effect with Diazinon and GS 13005 of various of the benzyl 2-propynyl ethers identified in Tables II and IIa was determined by topical application tests on IN/WHO strain, and Rutgers A strain and polyvalent, resistant, CH strain houseflies using the procedures of Example 5. The percent kills after 24 hours of IN/WHO strain flies are shown in Table XXXI; of Rutgers A strain flies, in Table XXXII; and of CH strain flies, in Table XXXIII. The doses of insecticide alone to the CH strain flies caused 10-40% mortality.
# The synergistic effect with pyrethrum of various synergist compounds was determined by topical application tests on polyvalent, resistant CH strain houseflies following the procedure of Example 5. Application of the insecticide alone caused 10-40% mortality.
# [5] = system: houseflies; experiment: topical application with Diazinon, Table XXVII (strain not given); assay type: in vivo
# [6] = system: Wilson strain house flies; assay type: in vivo, Wilson strain (susceptible)
# Procedure: The required solutions of the insecticide and of the synergist compound were prepared in acetone at a concentration of 1 milligram per milliliter. One-pint wide mouth glass jars were coated with the appropriate insecticide-synergist combination by rolling the jars containing aliquots of the appropriate solutions diluted to three milliliters with acetone to deposit, by evaporation, a film of the test materials. The flies were transferred under carbon dioxide anesthesia and held in the jar at room temperature. Perforated aluminum foil was used to cover the jars and to hold cotton saturated with 10% sugar solution. Counts were made at intervals, but the recorded mortality was based on 24-hour kill, rather than knockdown. All prostrate non-moving flies were considered dead. A determination was then made of the contact synergistic ratio [SR], which is the ratio of the LC50 of insecticide alone to the LC50 of the insecticide when applied together with the synergist. The LC50 of the insecticide was estimated from a log-probit plot of percent kill versus dosage. […] The LC50 of the combination of insecticide and synergist was determined at a synergist to insecticide parts by weight ratio of five to one.
# [7] = system: Rutgers A strain house flies; experiment: topical application, percent kill after 24 hours, resistant Rutgers A strain; assay type: in vivo, female)
# In short: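 Synergist plus mobam, Diazinon or GS 13005 dissolved in acetone, applied as 1.0 μl to the thorax of CO2-anaesthetised 3-to-5 day old female Rutgers A (resistant) house flies; doses in μg/fly. Flies held 10 per dish, 3-5 dishes per treatment, with skim milk; mortality scored at 24 h.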
smiles,measurement,setting,value
"COc1nn(CSP(=S)(OC)OC)c(=O)s1 [GS 13005, S-((2-methoxy-5-oxo-Δ^2-1,3,4-thiadiazolin-4-yl)methyl) O,O-dimethyl phosphorodithioate, reference compound]","number of mice dead, control (GS 13005 alone)",[1],5
same,"24 hour mortality, GS 13005 alone","[2]; GS 13005 dose 0.08, synergist 0, 1440 min",15% and 23% and 10%
same,"percent kill after 24 hours, GS 13005 alone","[3]; GS 13005 0.05, synergist 0 μg/fly",0%
same,"percent kill after 24 hours, GS 13005 alone","[3]; GS 13005 0.10, synergist 0 μg/fly, 1440 min",19% and 16% and 12%
same,"mortality, insecticide used without synergist","[4]; house fly, in vivo, topical or ocular, 24 h",10-40%
C#CCON=Cc1ccc(OC)c(OC)c1 [I-A],"percent kill after 24 hours, with Diazinon (Table XXVII)",[5]; Diazinon 5 + synergist 10 μg/fly,45%
same,mortality at 10 µg/fly,"[5]; Musca domestica, topical, 24 h, Diazinon 0, synergist 10 μg/fly, read-out: percent kill after 24 hours, synergist alone (Table XXVII)",0%
same,"Contact Synergistic Ratio, Pyrolan","[6]; LC50 pyrolan alone / LC50 with synergist, synergist to insecticide 5:1 by weight",30
same,"Contact Synergistic Ratio, Carbaryl",[6]; in vivo,200
same,"percent kill after 24 hours, with Dimetilan","[4]; Dimetilan 2 + synergist 4 μg/fly, CH strain",100%
same,"percent kill after 24 hours, with GS 13005","[4]; GS 13005 1 + synergist 2 μg/fly, CH strain",45%
same,mortality at 10 µg/fly,"[4]; Musca domestica, topical, 24 h, insecticide 0, synergist 10 μg/fly, CH strain, read-out: percent kill after 24 hours, synergist alone",0%
same,"percent kill after 24 hours, with pyrethrum","[4]; Pyrethrum 2 + synergist 4 μg/fly, CH strain",15%
same,"percent kill after 24 hours, synergist alone","[4]; insecticide 0, synergist 10 μg/fly, CH strain",0%
"CNC(=O)Oc1cccc2sccc12 [Mobam, 4-benzo(b) thienyl-N-methylcarbamate, reference compound]","24 hour mortality, Mobam alone","[2]; Mobam dose 0.12, synergist 0",10%
same,"24 hour mortality, Mobam alone","[2]; Mobam dose 0.16, synergist 0",30%
same,"percent mortality 24 hours, Mobam alone",[3]; Mobam 0.13 μg/fly alone,0%
same,"percent mortality 24 hours, Mobam alone","[3]; Mobam 0.25 μg/fly alone, 1440 min",27%
same,"percent mortality 24 hours, Mobam alone","[3]; Mobam 0.50 μg/fly alone, 1440 min",83%
same,"percent mortality 24 hours, Mobam alone","[3]; Mobam 1.0 μg/fly alone, 1440 min",93%
same,"percent kill after 24 hours, Mobam alone","[3]; Mobam 0.05, synergist 0 μg/fly",0%
same,"percent kill after 24 hours, Mobam alone","[3]; Mobam 0.10, synergist 0 μg/fly",zero
same,"percent kill after 24 hours, Mobam alone","[3]; Mobam 0.10, synergist 0 μg/fly, 1440 min",0%
same,"percent kill after 24 hours, Mobam alone","[3]; Mobam 0.20, synergist 0 μg/fly, 1440 min",6% and 2% and 9%
same,"percent kill after 24 hours, Mobam alone","[7]; Mobam 0.15, synergist 0 μg/fly",0%
same,"percent kill after 24 hours, Mobam alone","[7]; Mobam 0.30, synergist 0 μg/fly",0%
same,"percent kill after 24 hours, Mobam alone","[7]; Mobam 0.40, synergist 0 μg/fly",7%
same,"percent kill after 24 hours, Mobam alone","[7]; Mobam 0.60, synergist 0 μg/fly",4%
